Results as given in patent US20140178461A1, “COMPOUNDS AND COMPOSITIONS FOR USE IN THE TREATMENT AND PREVENTION OF LUNG AND BRAIN CANCER AND PRECANCEROUS CONDITIONS THEREOF” (priority 2012, published 2014).
Where two headings read alike, the source gives them in different places. Each block holds one compound with its values, some of them ahead of it.

Tests used:
[1] = tested on: A549 human non-small cell lung cancer cells; assay: Subcutaneous A549 xenograft in NOD SCID mice (efficacy of PTI 93); format: in vivo, mouse; settings: end of study, factoring in the 0 time value
Protocol: A549 human non-small cell lung cancer cells (1.5×10^5) were injected subcutaneously in the left and right flanks of 5-6-week-old female NOD SCID mice (Taconic Farms, Germantown, N.Y.). When the average tumor volume reached 100 mm^3, mice were treated by oral gavage of 10 or 15 mg/kg/day PTI 93 or vehicle (corn oil) for 2 weeks, when they were sacrificed and the tumors were harvested.

[2] = tested on: Salmonella Typhimurium (TA98 and TA100); assay: Genotoxicity, reverse mutations in Salmonella with and without rat liver S9; settings: strains TA98 and TA100, presence and absence of rat liver S9
[3] = tested on: heart tissue; assay: Cardiotoxicity, histology of heart tissue sections from treated mice; settings: mice treated for about 1.5 months
[4] = Pharmacokinetics study of PTI 93 in mice (plasma levels); settings: single i.p. dose of 100 mg/kg PTI 93, mice
[5] = design: AUC in plasma: unit not given beside the values; settings: mouse, in vivo, inhaled or intranasal
[6] = in vivo; settings: mouse, ip, 58 mg/kg
[7] = tested on: U87 cells; assay: Inhibition of glioblastoma cell line U87, 24-h growth inhibitory concentration; format: cell-based, human; settings: 24-hour growth inhibition
[8] = tested on: U87 glioblastoma cells; assay: Apoptosis, Annexin V-FITC/PI staining by FACS; format: cell-based, human
[9] = tested on: A549 human non-small lung cancer cells; assay: Orthotopic A549-GFP lung tumor model in Ncr nude mice (efficacy of phospho-ibuprofen amide 1); format: in vivo; settings: 200 mg/kg once a week for 8 weeks; compound 1 liposomal; versus control
[10] = Biodistribution of liposomal phospho-ibuprofen amide 1 in mice after i.v. administration; format: in vivo; settings: single 200 mg/kg i.v. dose, 1 h

SMILES: CCOP(=O)(OCC)OCCc1ccc(OC(=O)Cc2c(C)n(C(=O)c3ccc(Cl)cc3)c3ccc(OC)cc23)cc1 [PTI 93, [1-(4-Chloro-benzoyl)-5-methoxy-2-methyl-1H-indol-3-yl]-acetic acid 4-[2-(diethoxy-phosphoryloxy)-ethyl]-phenyl ester]
reduction of tumor volume ([1]; 10 mg/kg/day oral gavage for 2 weeks): 85%
reduction of tumor volume ([1]; 15 mg/kg/day oral gavage for 2 weeks): 96%
genotoxicity (reverse mutations) [2]: no genotoxicity
cardiotoxicity (histology, treated versus healthy control mice) [3]: no differences
time of maximum plasma concentration of intact PTI [4]: 2 h
plasma level of intact PTI 4 hours post administration ([4]; 4 hours): undetectable

AUC in plasma ([5]; BALB/c nude): 142.4
Cmax ([5]; BALB/c nude): 10.4 µM
Tmax in lung ([5]; BALB/c nude): 8 h
Tmax in plasma ([5]; BALB/c nude): 8 h
AUC in lung [5]: 57.5 nmol·h/g
Cmax in lung [5]: 4.6 nmol/g
SMILES: CC1=C(CC(=O)O)c2cc(F)ccc2/C1=C\c1ccc(S(C)(=O)=O)cc1 [Sulindac sulfone 132, sulindac sulfone]

AUC(0-t) [6]: 500 µM·h
Cmax [6]: 127 µM
SMILES: COc1ccc2c(c1)c(CC(=O)O)c(C)n2C(=O)c1ccc(Cl)cc1 [indomethacin 127, indomethacin]

IC50 [7]: ≥ 1000 µM
AUC in lung [5]: 30.1 nmol·h/g
AUC in plasma [5]: 49.5
Tmax in lung [5]: 0 h
Tmax in plasma [5]: 0 h
SMILES: CC1=C(CC(=O)O)c2cc(F)ccc2/C1=C\c1ccc([S+](C)[O-])cc1 (stereo not shown) [Sulindac, sulindac]

AUC in plasma ([5]; BALB/c nude): 66.9
AUC in lung [5]: 18.9 nmol·h/g
SMILES: CSc1ccc(/C=C2/C(C)=C(CC(=O)O)c3cc(F)ccc32)cc1 [Sulindac sulfide 131, sulindac sulfide]

SMILES: CCCC(CCC)C(=O)Oc1ccc(COP(=O)(OCC)OCC)cc1 [PV 116, Phosphovalproic Acid]
fold-increase of annexinV (+) cells [8]: 3.0 fold

SMILES: CCOP(=O)(OCC)OCCCCNC(=O)C(C)c1ccc(CC(C)C)cc1 (stereo not shown) [phospho-ibuprofen amide 1, Phosphoric acid diethyl ester 4-[2-(4-isobutyl-phenyl)-propionylamino]-butyl ester]
reduction based on lung tumor weight (lung weight) [9]: 80%
reduction of lung cancer based on fluorescence [9]: 95%
biodistribution (drug concentration in blood and major organs) [10]: preferentially accumulated in lungs
